Target: PARP-1 (Homo sapiens, UniProt P09874)
Assay: Inhibition of PARP by Compounds Having Formula I
Type: biochemical

Sequence of PARP-1 (P09874 whole entry, species assumed): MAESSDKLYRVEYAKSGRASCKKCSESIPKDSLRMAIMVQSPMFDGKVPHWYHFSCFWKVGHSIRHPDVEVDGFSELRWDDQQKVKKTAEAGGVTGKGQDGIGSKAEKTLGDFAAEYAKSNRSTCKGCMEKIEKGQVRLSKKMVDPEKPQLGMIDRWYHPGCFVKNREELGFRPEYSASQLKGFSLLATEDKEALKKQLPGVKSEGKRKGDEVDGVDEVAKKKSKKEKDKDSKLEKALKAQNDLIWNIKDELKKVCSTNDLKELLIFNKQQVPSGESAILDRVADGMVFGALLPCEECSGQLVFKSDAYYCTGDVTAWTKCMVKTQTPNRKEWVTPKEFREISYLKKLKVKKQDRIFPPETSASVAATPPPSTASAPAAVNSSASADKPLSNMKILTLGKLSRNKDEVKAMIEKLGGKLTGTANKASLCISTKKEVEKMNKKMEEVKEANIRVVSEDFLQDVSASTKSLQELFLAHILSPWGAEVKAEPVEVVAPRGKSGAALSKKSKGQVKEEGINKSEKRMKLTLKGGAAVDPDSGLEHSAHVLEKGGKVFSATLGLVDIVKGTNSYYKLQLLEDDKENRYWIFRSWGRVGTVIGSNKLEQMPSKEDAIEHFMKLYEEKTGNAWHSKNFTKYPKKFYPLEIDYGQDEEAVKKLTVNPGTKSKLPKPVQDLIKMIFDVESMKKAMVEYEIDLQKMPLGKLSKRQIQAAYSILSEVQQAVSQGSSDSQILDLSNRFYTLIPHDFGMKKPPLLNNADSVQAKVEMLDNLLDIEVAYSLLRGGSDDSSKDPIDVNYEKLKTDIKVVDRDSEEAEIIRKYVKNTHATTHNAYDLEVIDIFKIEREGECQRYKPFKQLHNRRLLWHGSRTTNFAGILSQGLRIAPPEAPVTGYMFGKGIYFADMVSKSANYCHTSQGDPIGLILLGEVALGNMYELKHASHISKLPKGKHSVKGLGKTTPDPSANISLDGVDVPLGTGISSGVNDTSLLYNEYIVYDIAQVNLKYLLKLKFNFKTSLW

Which Ki does the source give for `NC(=O)c1cccc2sc(-c3ccc(-c4cccnc4)cc3)nc12` [Example 3, 2-(4-pyridin-3-ylphenyl)-1,3-benzothiazole-4-carboxamide] here?
The Ki was 9.5 nM.

With `NC(=O)c1cccc2sc(-c3ccc(OS(=O)(=O)C(F)(F)F)cc3)nc12` [Example 1, 4-[4-(aminocarbonyl)-1,3-benzothiazol-2-yl]phenyl trifluoromethanesulfonate] as the compound, how does the Ki read?
Its Ki is 45 nM.

How did the Ki turn out when `NC(=O)c1cccc2sc(-c3ccc(-c4ccncc4)cc3)nc12` [Example 4, 2-(4-pyridin-4-ylphenyl)-1,3-benzothiazole-4-carboxamide] was run?
Its Ki is 26 nM.

`NC(=O)c1cccc2sc(-c3ccc(-c4ccccc4)cc3)nc12` [Example 2, 2-(1,1′-biphenyl-4-yl)-1,3-benzothiazole-4-carboxamide] was tested. Which Ki did it give?
The Ki was 316 nM.

Reference: patent publication US8093396B2, “Benzthiazole inhibitors of poly(ADP-ribose)polymerase” (Abbott Laboratories, priority 2009, dated 2012)
